Experimental data taken from PubChem BioAssay (NCI).
“And” between values parts separate entries of the source, which are not always exact repeats. Equal values may be shown once.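 All cell lines were grown in 96-well plates and treated with compound for 48 hours. GI50: concentration for 50% inhibition of growth. TGI marks complete inhibition of growth.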

Assays:
Assay in all cases: NCI anticancer screen, dose series, 48 h
786-0 renal = system: 786-0 renal
HL-60(TB) leukemia = system: HL-60(TB) leukemia
K-562 leukemia = system: K-562 leukemia
MOLT-4 leukemia = system: MOLT-4 leukemia
NCI-H460 lung = system: NCI-H460 lung
RPMI-8226 leukemia = system: RPMI-8226 leukemia
SK-OV-3 ovarian = system: SK-OV-3 ovarian
SN12C renal = system: SN12C renal
SR leukemia = system: SR leukemia
U251 CNS = system: U251 CNS

Row | SMILES | TGI (786-0 renal) | TGI (HL-60(TB) leukemia) | TGI (K-562 leukemia) | TGI (MOLT-4 leukemia) | TGI (NCI-H460 lung) | TGI (RPMI-8226 leukemia) | TGI (SK-OV-3 ovarian) | TGI (SN12C renal) | TGI (SR leukemia) | TGI (U251 CNS) | GI50 (786-0 renal) | GI50 (HL-60(TB) leukemia) | GI50 (K-562 leukemia) | GI50 (MOLT-4 leukemia) | GI50 (NCI-H460 lung) | GI50 (RPMI-8226 leukemia) | GI50 (SK-OV-3 ovarian) | GI50 (SN12C renal) | GI50 (SR leukemia) | GI50 (U251 CNS)
1 | CCCOc1ccc(/C(Cl)=C(\C=O)c2ccc(OC)c(OC)c2)cc1OCCC | > 100 µM | 20.9 µM | > 100 µM | > 100 µM | 28.7 µM | > 100 µM | > 100 µM | > 100 µM | 12 µM | 33.9 µM | – | – | – | – | – | – | – | – | – | –
2 | COc1cc2c(cc1OC)C(CCc1ccc(Cl)cc1)N(C)CC2 (stereo not drawn) | 48.9 µM | 44.3 µM | 66.1 µM | 94.9 µM | 40.2 µM | > 100 µM | > 100 µM | > 100 µM | 63.4 µM | 64.3 µM | 17.4 µM | 17.2 µM | 24.7 µM | 35.7 µM | 17.8 µM | 24.9 µM | 32.2 µM | 39.9 µM | 28.4 µM | 22.8 µM
3 | COc1cc2c(cc1OCCCCNC(=O)c1cc3ccccc3[nH]1)N=CC1CCCN1C2=O (stereo not drawn) | > 100 µM | > 100 µM | > 100 µM | > 100 µM | 65.1 µM | 96.3 µM | 83.6 µM | 44.8 µM | > 100 µM | > 100 µM | 33.5 µM | 7.97 µM | 8.35 µM | 8.72 µM | 11.9 µM | 5.67 µM | 29.9 µM | 18.9 µM | > 100 µM | 10.5 µM
4 | O=C1CCCCC/C=C2/CC[C@H](Sc3ccccc3)[C@@H]12 | > 100 µM | > 100 µM | > 100 µM | > 100 µM | > 100 µM | > 100 µM | > 100 µM | > 100 µM | > 100 µM | > 100 µM | – | – | – | – | – | – | – | – | – | –
5 | CC(=O)NNc1nc(C)c(C(=O)NNC(=O)C(=O)Nc2ccc(C)c(C)c2)s1 | > 100 µM | > 100 µM | > 100 µM | > 100 µM | > 100 µM | > 100 µM | > 100 µM | > 100 µM | > 100 µM | > 100 µM | – | – | – | – | – | – | – | – | – | –
6 | CC(C)=CC/C=C(/C)[C@H]1CC[C@]2(C)[C@@H]1CC[C@@H]1[C@@]3(C)CCC(=O)NC(C)(C)[C@@H]3CC[C@]12C | 37.5 µM | 49.3 µM | 88.2 µM | 49.6 µM | > 100 µM | 34.6 µM | > 100 µM | 33.8 µM | 51.8 µM | 36.5 µM | 19.8 µM | 18.2 µM | 17.3 µM | 15.4 µM | 33.9 µM | 11.8 µM | 47.7 µM | 16.1 µM | 17.4 µM | 17.2 µM
7 | CN(C)CC(C(=O)c1ccccc1)c1ccccc1 (stereo not drawn) | 10.4 µM | 8.22 µM | 10.1 µM | 31.3 µM | 16 µM | 7.49 µM | 7.77 µM | 3.35 µM | 7.51 µM | 3.13 µM | 3.58 µM | 3.17 µM | 0.483 µM | 4.2 µM | 3.93 µM | 2.08 µM | 2.62 µM | 1.57 µM | 2.28 µM | 1.56 µM
8 | COc1ccc(/C=C2/C(=O)N(C(=O)c3ccccc3O)N=C2C)cc1OC | > 100 µM | > 33.6 µM | > 100 µM | > 100 µM | > 100 µM | > 100 µM | > 100 µM | > 50.7 µM | > 100 µM | > 100 µM | – | – | – | – | – | – | – | – | – | –
9 | CCc1cccc(C(C)CC)c1N=C(NC(=O)c1ccccc1C(=O)NC(=Nc1c(CC)cccc1C(C)CC)SC)SC (stereo not drawn) | > 100 µM | 51.5 µM | > 100 µM | > 100 µM | > 100 µM | 89.8 µM | > 100 µM | > 100 µM | > 100 µM | 79.5 µM | – | – | – | – | – | – | – | – | – | –
10 | COC1=C(OC)C(=O)C(/C=C(\C)C(=O)O)=C(C)C1=O | > 100 µM | > 100 µM | > 100 µM | > 100 µM | > 100 µM | > 100 µM | > 100 µM | > 100 µM | > 100 µM | > 100 µM | > 100 µM | > 100 µM | > 100 µM | > 100 µM | > 100 µM | > 100 µM | > 100 µM | > 100 µM | > 100 µM | > 100 µM
11 | Fc1ccc(-c2nc(-c3nc4ccc(Cl)cc4[nH]3)cc3c2[nH]c2ccccc23)cc1 | 18.7 µM | 17.8 µM | 38.4 µM | 8.37 µM | 10.5 µM | 6.58 µM | 24.6 µM | 24.4 µM | > 100 µM | 18 µM | 5.71 µM | 4.32 µM | 3.32 µM | 2.48 µM | 2.97 µM | 1.84 µM | 7.43 µM | 3.04 µM | 3.71 µM | 3.31 µM
12 | CC1=C(N2CC2)C(=O)C(CO)=C(N2CC2)C1=O | 0.0199 µM and 0.133 µM | 0.0104 µM | 1.07 µM | 5.88 µM | 1.85 µM | 0.0147 µM and 0.0824 µM | 1.81 µM | 0.0367 µM and 0.139 µM | > 49 µM | 0.285 µM | 0.00201 µM | 0.000498 µM | – | – | 0.00476 µM | 0.00102 µM | 0.186 µM | 0.0057 µM | – | –
13 | COc1cc(CNC(=O)/C=C/C=C/c2ccc3c(c2)OCO3)ccc1OCc1cn(-c2ccc(Cl)c(Cl)c2)nn1 | 4.28 µM | 5.73 µM | 3.78 µM | 2.67 µM | 1.83 µM | 8.36 µM | 6.57 µM | 4.93 µM | 19.1 µM | 3.22 µM | 2.03 µM | 2.08 µM | 0.509 µM | 0.738 µM | 0.445 µM | 2.3 µM | 2.54 µM | 1.82 µM | 2.8 µM | 1.65 µM
14 | N#Cc1ccc(Oc2nccc(-c3c(-c4ccc(F)cc4)ncn3C3CCNCC3)n2)cc1 | > 25 µM | > 25 µM | 12.4 µM | 20.8 µM | > 25 µM | > 25 µM | > 25 µM | > 25 µM | 11.3 µM | > 25 µM | > 25 µM | > 25 µM | 5.01 µM | 8.01 µM | 14 µM | 12.1 µM | > 25 µM | > 25 µM | 4.54 µM | 11.8 µM
15 | Cc1c2ccccc2c(C)c2c3c(ccc12)C(=O)C=CC3=O | > 62.2 µM | 5.3 µM | 50.9 µM | 6.78 µM | > 100 µM | 60.6 µM | > 100 µM | > 69.1 µM | 25.2 µM | > 100 µM | – | – | – | – | – | – | – | – | – | –
16 | CC(=O)OC1C=CC2CCN3C(=O)c4cc5c(cc4[C@H]1C23)OCO5 (stereo partly drawn) | > 100 µM | > 100 µM | > 100 µM | > 100 µM | > 100 µM | > 100 µM | > 100 µM | > 100 µM | > 100 µM | > 100 µM | – | – | – | – | – | – | – | – | – | –
17 | c1cncc(CNc2ccccc2-c2nnc(Nc3ccc4c(c3)OCO4)o2)c1 | > 90.4 µM | 0.147 µM | > 100 µM | > 100 µM | > 100 µM | > 100 µM | 7.81 µM | > 100 µM | > 100 µM | > 42.8 µM | 0.14 µM | 0.0259 µM | 0.0474 µM | 0.194 µM | 0.0435 µM | 0.16 µM | 0.0914 µM | 0.0994 µM | 0.0361 µM | 0.0452 µM
18 | COc1cccc(Nc2nc(NNC(=O)Cc3ccccc3)nc(NNC(=O)c3ccncc3)n2)c1 | > 100 µM | > 100 µM | > 100 µM | > 100 µM | > 100 µM | > 100 µM | > 100 µM | > 100 µM | > 100 µM | > 100 µM | > 100 µM | – | > 100 µM | – | > 100 µM | > 100 µM | > 100 µM | > 100 µM | – | > 100 µM
19 | CCN1CCC[C@H]1c1cc(O)c2c(c1OC)C[C@H]1C[C@H]3[C@H](N)C(=O)C(C(N)=O)=C(O)[C@@]3(O)C(=O)C1=C2O | 2.19 µM | 0.238 µM | > 100 µM | 0.666 µM | 1.9 µM | 0.454 µM | 0.215 µM | 1.5 µM | 0.94 µM | 1.88 µM | 0.0504 µM | 0.0379 µM | 0.0599 µM | 0.0587 µM | 0.0602 µM | 0.041 µM | 0.032 µM | 0.0682 µM | 0.0436 µM | 0.0442 µM
20 | CC(=O)Nc1ccc2nncnc2c1 | > 100 µM | > 100 µM | > 100 µM | > 100 µM | > 100 µM | > 100 µM | > 100 µM | > 100 µM | > 100 µM | > 100 µM | – | – | – | – | – | – | – | – | – | –
21 | O=C1NC(=NCC(CO)c2ccccc2)S/C1=C\c1ccc2ncccc2c1 (stereo not drawn) | > 25 µM | > 25 µM | > 25 µM | > 25 µM | > 25 µM | > 25 µM | > 25 µM | > 25 µM | > 22.7 µM | > 25 µM | > 25 µM | 8.34 µM | 10.6 µM | > 25 µM | > 16.1 µM | 14.6 µM | > 25 µM | 17.6 µM | 4.49 µM | 9.91 µM
22 | CCN1CCN(CCOc2ccc(CNc3ccc4nc(CCC5CCCCC5)[nH]c4c3)cc2)CC1 | 3.39 µM | 3.92 µM | 2.69 µM | 6.09 µM | 7.27 µM | 3.79 µM | 5.16 µM | 11 µM | 0.941 µM | 3.16 µM | 1.57 µM | 1.87 µM | 0.42 µM | 1.87 µM | 2.47 µM | 1.43 µM | 2.28 µM | 2.72 µM | 0.303 µM | 1.49 µM
